Values of other authors, collected in patent US4733002A, “Lipoxygenase inhibitor” (Green Cross Corporation, priority 1984, dated 1988).

System: 5-lipoxygenase
Settings: prior art, statement in words

Row | SMILES | 5-lipoxygenase inhibiting activity
1 | O=C(O)/C=C/c1ccc(O)c(O)c1 [caffeic acid] | not a satisfactory one
2 | COC(=O)C=Cc1ccc(O)c(O)c1 [its methyl ester] | not a satisfactory one
